Assay results reported in EP4678639A1, “SALT OF BENZIMIDAZOLE DERIVATIVE” (JW Pharmaceutical Corporation, priority 2023, dated 2024).
Structures can show the parent of a compound that is named as a salt.

Key:
[1] = water
Method: (§1) The measurement was conducted according to the method described under "Solubility" in the General Notices of Appendix 1 of the 12th Edition of the Korean Pharmacopoeia. Each solubility was expressed by measuring the solubility of the acid addition salt itself, without conversion to the tegoprazan freebase.

[2] = Solid-state stress stability test (humidity 90 % RH); conditions: for Initial (%) Degradant / Initial (%) Total Related substances: Table 9, initial; for Remarks: state of the solid
[3] = Solid-state stress stability test (temperature 60 °C); conditions: for Change (%) Degradant: 1 month vs initial; for Initial (%) Degradant / Initial (%) Total Related substances: Table 8, initial
Method: (§2) Operation and Calculation: The blank solution, standard solution, and test solution were sequentially tested under the instrument operating conditions according to the liquid chromatography method in the General Test Methods of the 12th Edition of the Korean Pharmacopoeia, and the amount of related substances was calculated using the following equation. Amount of each related; substance (%) = (AT)/(AS) × (CS)/(CT) × (Molecular weight; of the sample)/(Molecular weight; of the standard; product) × P × (1)/(RR; F) [formula] AT = Area of each related substance peak obtained from the test solution AS = Area of the tegoprazan peak obtained from the standard solution CS = Concentration of standard solution (mg/mL) CT = Concentration of test solution (mg/mL) P = Purity/Assay/Potency (%) of standard product RRF = Relative response factor (1.0)
(§3) A solid-state stability comparative test was conducted on each of the above-mentioned prepared tegoprazan acid addition salts. The stability comparative test was conducted for 1 month under the conditions shown in Table 6 below in accordance with The International Council for Harmonisation of Technical Requirements for Pharmaceuticals for Human Use (ICH) guideline, and the purity of the acid addition salt, total related substances, and the content of degradants were measured by HPLC at the initial time point and after 1 month. Total related substances and degradants were measured according to the related substance test method (HPLC).
2) Stress Stability Test (temperature 60 °C)

[4] = Photostability test, visible light (1.2 Mlux·hr) exposure; conditions: for Change (%) Degradant: Table 11, after exposure vs initial; for After (%) Degradant / After (%) Total Related substances: Table 11 under heading Visible Light (1.2 Mlux-hr) Exposure Test
Method: (§4) A photostability comparative test was conducted on each of the above-mentioned prepared tegoprazan acid addition salts. The test was conducted by exposing the sample to light with an energy of 200 W hr/m^2 of ultraviolet light and 1.2 Mlux hr of visible light in accordance with The International Council for Harmonisation of Technical Requirements for Pharmaceuticals for Human Use (ICH) guideline, with the samples packaged in a single PE bag and spread thinly enough to ensure exposure to the light source, taking humidity stability into consideration. The purity of the acid addition salts and the change in the amount of degradants at the initial time point and after exposure to ultraviolet light or visible light were measured by HPLC.

[5] = Photostability test, ultraviolet light (200 W·hr/m2) exposure; conditions: for After Ultraviolet Light Exposure (200 W hr/m2)(%) Degradant / After Ultraviolet Light Exposure (200 W hr/m2)(%) Total Related substances: Table 10, UV 200 W·hr/m2, PE bag; for Change (%) Degradant: Table 10, after UV exposure vs initial; for Initial (%) Degradant / Initial (%) Total Related substances: Table 10, initial
Method: as §4

[6] = Solid-state accelerated stability test (40 ± 2 °C/RH 75 ± 5 %); conditions: for Change (%) Degradant: 1 month vs initial; for Initial (%) Total Related substances / Initial (%) Degradant: Table 7, initial; for Initial (%) Degradant: degradant of Formula 4
Method: as §2, §3

[7] = Liquid stability comparative test (20 mg/mL in purified water, 40 °C, 24 hours, HPLC); type: physicochemical
Method: The analysis conditions are as follows.
Each sample was dissolved in purified water to prepare a solution with a concentration of 20 mg/mL, stored at an external temperature of 40 °C, and analyzed by HPLC at the initial time point and after 24 hours to measure purity, and the change in the generated degradant (Formula 4) was measured. The analysis of total related substances and degradants was performed by taking a liquid from a solution prepared at a concentration of 20 mg/mL, diluting it to a concentration of 4 mg/mL with the diluent of the related substance test method (HPLC), and measuring it as a test solution, and analyzing it according to the related substance test method (HPLC).

[8] = Raw material stability test versus tegoprazan freebase (60 °C or 90 % RH); type: physicochemical; conditions: for change in appearance, 60 °C / change in appearance, 90 % RH: 3 weeks
[9] = Stability test by formulation (tablets and orally disintegrating tablets, 60 °C or 90 % RH); type: physicochemical; conditions: tablets and orally disintegrating tablets prepared with the named salt, versus reference drug
Method: The amount of total related substances under stress storage conditions (temperature/humidity) was measured using liquid chromatography (HPLC) using an Infinity 1260 (Agilent) equipment. The analysis conditions are as follows.
To minimize the influence of additives, each test formulation was selected with the same additives as the reference drug (K-CAB tablets 50 mg, K-CAB orally disintegrating tablets 50 mg) disclosed in the Ministry of Food and Drug Safety Pharmaceutical Integrated Information System, and to minimize differences due to the granule manufacturing process, the formulation was prepared using the simple mixing (direct compression) method. Each formulation was as shown in Tables 16 and 17 below, and the stability conditions were conducted for each formulation under the storage conditions of 60 °C, which is a stress temperature condition, and 90 % RH, which is a stress humidity condition, respectively.
Stability tests were conducted under stress storage conditions (temperature/humidity) for each formulation. The results of measuring the amount of total related substances after storage under stress conditions for 1 week or 3 weeks are shown in FIG. 18 and FIG. 19.

[10] = in vivo; cited from earlier work
[11] = Solubility comparative test (Korean Pharmacopoeia 'Solubility'); conditions: solubility of the acid addition salt itself, without conversion to freebase
Method: as §1

[12] = 40 ± 2 °C / RH 75 ± 5 %, 1 month
[13] = liquid stability, 40 °C, 24 hours

SMILES: Cc1nc2c(O[C@H]3CCOc4cc(F)cc(F)c43)cc(C(=O)N(C)C)cc2[nH]1 [Hemisalicylate Salt]
- solubility / aqueous solubility [1]: ≤ 1000 µg/mL
- After 1 Month (%) Total Related substances ([2]; 90 % RH, 1 month): 1.759%
- Initial (%) Degradant [2]: 0.001%
- Initial (%) Total Related substances [2]: 0.208%
- After 1 Month (%) Degradant ([3]; 60 °C, 1 month): 0.039%
- After 1 Month (%) Total Related substances ([3]; 60 °C, 1 month): 0.268%
- Change (%) Degradant ([3]; 60 °C): 0.038%
- Initial (%) Degradant [3]: 0.001%
- Initial (%) Total Related substances [3]: 0.208%
- Change (%) Degradant [4]: 0.244%
- Remarks ([4]; Table 11, after exposure, appearance): Discolorat ion
- Initial (%) Degradant ([4]; Table 11, initial): 0.001%
- Initial (%) Total Related substances ([4]; Table 11, initial): 0.208%
- After (%) Degradant [4]: 0.245%
- After (%) Total Related substances [4]: 1.021%
- changes in appearance ([4]; visible light exposure): changes in appearance
- After Ultraviolet Light Exposure (200 W hr/m2)(%) Degradant [5]: 0.360%
- After Ultraviolet Light Exposure (200 W hr/m2)(%) Total Related substances [5]: 1.360%
- Change (%) Degradant [5]: 0.359%
- Remarks ([5]; Table 10, after UV exposure, appearance): Discolorat ion
- Initial (%) Degradant [5]: 0.001%
- Initial (%) Total Related substances [5]: 0.208%
- changes in appearance ([5]; ultraviolet light exposure): changes in appearance
- After 1 Month (%) Degradant [6, 12]: 0.004%
- After 1 Month (%) Total Related substances [6, 12]: 0.208%
- Change (%) Degradant ([6]; 40 ± 2 °C / RH 75 ± 5 %): 0.003%
- Initial (%) Total Related substances [6]: 0.208%
- Initial (%) Degradant [6]: 0.001%
- purity change after 1 month ([6]; accelerated stability): ≤ 0.1%

SMILES: Cc1nc2c(O[C@H]3CCOc4cc(F)cc(F)c43)cc(C(=O)N(C)C)cc2[nH]1 [Maleate Salt]
- solubility / aqueous solubility [1]: ≤ 1000 µg/mL
- absorb moisture and deliquesce / melted ([2]; 90 % RH): absorb moisture and deliquesce
- Remarks ([2]; 90 % RH, 1 month): Melted
- Initial (%) Degradant [2]: 0.027%
- Initial (%) Total Related substances [2]: 0.357%
- total related substances increased after 1 month ([3]; 60 °C): ≥ 5.0%
- After 1 Month (%) Degradant ([3]; 60 °C, 1 month): 1.248%
- After 1 Month (%) Total Related substances ([3]; 60 °C, 1 month): 6.070%
- Change (%) Degradant ([3]; 60 °C): 1.221%
- Initial (%) Degradant [3]: 0.027%
- Initial (%) Total Related substances [3]: 0.357%
- Change (%) Degradant [4]: 0.006%
- Initial (%) Degradant ([4]; Table 11, initial): 0.027%
- Initial (%) Total Related substances ([4]; Table 11, initial): 0.357%
- After (%) Degradant [4]: 0.033%
- After (%) Total Related substances [4]: 0.508%
- After Ultraviolet Light Exposure (200 W hr/m2)(%) Degradant [5]: 0.032%
- After Ultraviolet Light Exposure (200 W hr/m2)(%) Total Related substances [5]: 0.354%
- Change (%) Degradant [5]: 0.005%
- Initial (%) Degradant [5]: 0.027%
- Initial (%) Total Related substances [5]: 0.357%
- After 1 Month (%) Degradant [6, 12]: 0.083%
- After 1 Month (%) Total Related substances [6, 12]: 0.679%
- Change (%) Degradant ([6]; 40 ± 2 °C / RH 75 ± 5 %): 0.056%
- Initial (%) Total Related substances [6]: 0.357%
- Initial (%) Degradant [6]: 0.027%
- increase in total related substances after 1 month ([6]; accelerated stability): ≥ 0.3%

SMILES: Cc1nc2c(O[C@H]3CCOc4cc(F)cc(F)c43)cc(C(=O)N(C)C)cc2[nH]1 [Sulfate Salt]
- After 24 hours Purity (%) ([7]; 20 mg/mL in purified water, 40 °C, 24 hours): 93.95%
- Initial Purity (%) ([7]; 20 mg/mL in purified water, initial time point): 99.89%
- After 24 hours Degradant (%) ([7]; degradant of Formula 4, 20 mg/mL in purified water, 40 °C, 24 hours): 5.414%
- Initial Degradant (%) ([7]; degradant of Formula 4, 20 mg/mL in purified water, initial time point): 0.080%
- Amount of Change Degradant (%) ([7]; initial vs after 24 hours at 40 °C): 5.33%
- degradants formed after 24 hours of storage [7, 13]: ≥ 5%
- purity decreased [7, 13]: about 6%
- change in appearance, 60 °C [8]: Pungent odor
- change in appearance, 90 % RH [8]: Pungent odor
- change in appearance, Initial [8]: Pungent odor
- amount of total related substances generated (FIG. 13) ([8]; stress temperature/humidity storage, compared to tegoprazan freebase): significantly increased
- amount of total related substances generated (FIGS. 18 and 19) ([9]; 60 °C or 90 % RH, 1 or 3 weeks): significantly increased
- degree of weight gain (FIG. 17) ([9]; 90 % RH, 3 weeks): greater
- After 1 Month (%) Degradant ([2]; 90 % RH, 1 month): 14.500%
- After 1 Month (%) Total Related substances ([2]; 90 % RH, 1 month): 16.637%
- Change (%) Degradant ([2]; 90 % RH, 1 month vs initial): 14.161%
- Remarks ([2]; 90 % RH, 1 month): Polymorp hic Transition
- polymorphic transition (PXRD) ([2]; 90 % RH, after 1 month): polymorphic transition occurred
- Initial (%) Degradant [2]: 0.339%
- Initial (%) Total Related substances [2]: 0.609%
- After 1 Month (%) Degradant ([3]; 60 °C, 1 month): 2.345%
- After 1 Month (%) Total Related substances ([3]; 60 °C, 1 month): 3.441%
- change in appearance, change in the color of the solid ([3]; 60 °C, 1 month): change in appearance
- Change (%) Degradant ([3]; 60 °C): 2.006%
- Remarks ([3]; 60 °C, 1 month, appearance): Discolorat ion
- Initial (%) Degradant [3]: 0.339%
- Initial (%) Total Related substances [3]: 0.609%
- Change (%) Degradant [4]: 1.934%
- Initial (%) Degradant ([4]; Table 11, initial): 0.339%
- Initial (%) Purity ([4]; Table 11, initial): 99.3%
- Initial (%) Total Related substances ([4]; Table 11, initial): 0.609%
- After (%) Degradant [4]: 2.273%
- After (%) Total Related substances [4]: 2.754%
- After Ultraviolet Light Exposure (200 W hr/m2)(%) Degradant [5]: 1.415%
- After Ultraviolet Light Exposure (200 W hr/m2)(%) Total Related substances [5]: 1.748%
- Change (%) Degradant [5]: 1.076%
- Initial (%) Degradant [5]: 0.339%
- Initial (%) Total Related substances [5]: 0.609%
- After 1 Month (%) Degradant [6, 12]: 0.712%
- After 1 Month (%) Total Related substances [6, 12]: 1.197%
- Change (%) Degradant ([6]; 40 ± 2 °C / RH 75 ± 5 %): 0.373%
- Remarks ([6]; 40 ± 2 °C / RH 75 ± 5 %, 1 month, appearance): Discolorat ion
- Initial (%) Total Related substances [6]: 0.609%
- Initial (%) Degradant [6]: 0.339%
- increase in total related substances after 1 month ([6]; accelerated stability): ≥ 0.3%
- change in appearance of the solid ([6]; accelerated stability, 1 month): discoloration

SMILES: Cc1nc2cc(C(=O)N(C)C)cc(O[C@H]3CCOc4cc(F)cc(F)c43)c2[nH]1 [Tegoprazan Freebase Crystalline Form A]
- change in appearance, 60 °C [8]: No change in appearance
- change in appearance, 90 % RH [8]: No change in appearance
- change in appearance, Initial [8]: No change in appearance
- Tmax delayed when administered after a meal compared to before a meal [10]: up to 8 hours
- Solubility [11]: < 1000 µg/mL
